Test results published in patent US20060058320A1, “[1,2,4] Triazolo[1,5-c]pyrimidine derivatives” (KYOWA HAKKO KOGYO CO., LTD., priority 2002, published 2006).

Columns and labels:
adenosine A2A receptor = target: T1, adenosine A2A receptor (Rattus norvegicus, UniProt P30543); assay: Adenosine A2A receptor binding test (3H-CGS 21680 binding); conditions: test compound 10^−7 mol/L, 3H-CGS 21680 binding, rat corpus striatum; for inhibition at 0.1 µM: read-out: A2A Receptor inhibition rate (%) at 10^−7 mol/L
T1 construct: from tissue; host or cells: rat corpus striatum membrane preparation
T1 sequence (P30543 whole entry): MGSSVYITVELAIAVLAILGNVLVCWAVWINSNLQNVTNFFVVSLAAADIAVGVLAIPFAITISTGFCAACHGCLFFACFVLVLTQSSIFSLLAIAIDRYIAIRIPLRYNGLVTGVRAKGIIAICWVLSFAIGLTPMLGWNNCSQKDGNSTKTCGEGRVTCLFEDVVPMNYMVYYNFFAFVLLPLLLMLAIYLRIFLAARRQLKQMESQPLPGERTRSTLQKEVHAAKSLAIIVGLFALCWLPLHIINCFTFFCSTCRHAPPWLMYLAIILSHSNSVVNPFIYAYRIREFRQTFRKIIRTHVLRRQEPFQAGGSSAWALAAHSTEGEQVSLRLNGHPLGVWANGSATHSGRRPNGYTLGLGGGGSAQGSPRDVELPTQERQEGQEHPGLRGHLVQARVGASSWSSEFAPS
Procedure: The test was carried out according to the method of Bruns et al. [Molecular Pharmacology, vol. 29, p.
Rat corpus striatum was suspended in an ice-cold 50 mmol/L tris(hydroxymethyl)aminomethane hydrochloride (referred to as “Tris HCl” hereinafter) buffer (pH 7.7) using a Polytron homogenizer (produced by Kinematica Co.). The suspension was centrifuged (50,000×g, 10 minutes), and the resulting precipitate was again suspended in the same amount of a 50 mmol/L Tris HCl buffer, followed by centrifugation under the same conditions. The resulting finalprecipitate was again suspended in a 50 mmol/L-Tris HCl buffer [containing 10 mmol/L of magnesium chloride and 0.02 unit/mg tissue of adenosine deaminase (produced by Sigma Co.)] so that the tissue concentration was 5 mg (wet weight)/mL.
The radioactivity on the filter was determined with a liquid scintillation counter (produced by Packard Instrument Co.).
In the equation, X represents Amount of binding in the presence of a medicament, Y represents Amount of nonspecific binding, and Z represents Amount of total binding.

[1] = tested on: CGS 21680-induced catalepsy; assay: Activity on CGS 21680-induced catalepsy; format: in vivo, mice; conditions: 10 mg/kg orally; for Total score: total catalepsy score of 10 mice (maximum 50 points; 40 points or less = positive), one hour after administration
Procedure, shortened: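 Male ddY mice, 5 weeks old, ten per group, were dosed orally with compound at 10 mg/kg in 0.3% Tween 80 water, 30 min before CGS 21680 (10 μg/20 μL) was injected into the cerebral ventricle. Catalepsy was scored 1 h after compound dosing by placing forelimbs or hindlimbs on a 4.5 cm stand.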

male ddY mice = assay: Forced swimming method (measurement of immobility time); format: in vivo; conditions: orally administered, 10 mg/kg, one hour before the test; versus solvent group (Steel-test)
Procedure: Ten male ddY mice (21 to 26 g in body weight, Japan SLC) per group were used as test animals. During the preliminary feeding period, the animals were bred to be allowed to freely have feed (CRF-1; Oriental Yeast Co., Ltd, Tokyo) and water (tap water) in an animal room at a room temperature for 23±1° C. and a humidity of 55±5%.
Animals showing abnormal reactions in terms of spontaneous activity, myotonia, eyesight and the like were previously excluded. Each test compound was suspended in a 0.3% Tween 80 solution and orally administered one hour before the test. In the negative control group, 10 mL/kg of a 0.3% Tween 80 solution alone was orally administered. The immobility time was measured according to the Porsolt method [Arch. Int. Pharmacodyn., vol. 229, pp. 327-336 (1977)]. Namely, a cylindrical transparent acrylic water tank (10 cm in diameter and 25 cm in height) was filled with water at a temperature between 23±1° C. to a height of 9 cm, and the mice were forced to swim for 6 minutes. When the mice are put into water, they immediately start to swim trying to escape from the tank, but the motion gradually decreases 1 to 2 minutes thereafter. […] In order to reduce the effects of daily rhythm, the test was carried out using 5 of the 10 animals per group in the morning, and the remaining 5 animals in the afternoon. The immobility time was measured by observing 2 animals at the same time without telling the observers distinctions about the control group administered with the solvent alone and doses of the test compounds. Statistical analysis of the results was carried out by a multiple comparison Steel-test between the solvent-administered group and the test compound-administered group.

| Compound | inhibition at 0.1 µM (adenosine A2A receptor) [%] | melting point | also measured |
| --- | --- | --- | --- |
| CC(C)NC(=O)c1cc2nc(-c3ccco3)nn2c(N)n1 [Compound 89, 5-Amino-2-(2-furyl) [1,2,4]triazolo[1,5-c]pyrimidine-7-carboxylic acid isopropylamide] | 89 |  | inhibition in vivo at 10 mg/kg ([1]; Mus musculus, po, from total score of test group and control group, read-out: Remission ratio (%)): 84%; Total score [1]: 8; immobility time (male ddY mice): significant effect of decreasing the immobility time |
| 5-Amino-2-(2-furyl)[1,2,4]triazolo[1,5-c]pyrimidine-7-carboxylic acid (1,2,3,4-tetrahydroisoquinolyl)amide [Compound 94] |  |  | A2A Receptor inhibition rate (%) at 10^−7 mol/L (adenosine A2A receptor): 95%; Number of animals showing remission ([1]; cases with catalepsy score of 4 points or less in 10 cases): 10; Remission ratio (%) ([1]; from total score of test group and control group): 90%; Total score [1]: 5; immobility time (male ddY mice): significant effect of decreasing the immobility time |
| Nc1nc(C(=O)c2ccccc2)cc2nc(-c3ccco3)nn12 [Compound 39, 5-Amino-7-benzoyl 2-(2-furyl)[1,2,4]triazolo[1,5-c]-pyrimidine] | 66 | 229.2 to 229.7 °C |  |
| Nc1nc(-c2ccc(CNCCc3ccccn3)cc2)cc2nc(-c3ccco3)nn12 [Compound 11, 5-Amino-2-(2-furyl)-7-{4-[2-(2-pyridyl)ethylaminomethyl]-phenyl}[1,2,4]triazolo[1,5-c]pyrimidine] | 53 | 159.8 to 160.5 °C |  |
| Nc1nc(CCc2ccccc2)cc2nc(-c3ccco3)nn12 [Compound 66, 5-Amino-2-(2-furyl)-7-(2-phenylethyl)[1,2,4]triazolo[1,5-c]-pyrimidine] | 82 | 205 to 205.1 °C |  |
| Nc1nc(-c2ccccc2)cc2nc(-c3ccco3)nn12 [Compound 1, 5-Amino-2-(2-furyl)-7-phenyl[1,2,4]triazolo[1,5-c]pyrimidine] | 65 | 218.5 to 219 °C |  |

Continued, in another order:

| inhibition at 0.1 µM (adenosine A2A receptor) [%] | melting point | Compound | also measured |
| --- | --- | --- | --- |
| 81 | 155 to 155.3 °C | CCCCc1cc2nc(-c3ccco3)nn2c(N)n1 [Compound 64, 5-Amino-7-butyl-2-(2-furyl)[1,2,4]triazolo[1,5-c]pyrimidine] |  |
| 54 | 270 °C (dec.) | Nc1nc(C=O)cc2nc(-c3ccco3)nn12 [Compound 41, 5-Amino-7-formyl-2-(2-furyl)[1,2,4]triazolo[1,5-c]pyrimidine] |  |
| 84 | 221.2 to 221.5 °C | CC(=O)c1cc2nc(-c3ccco3)nn2c(N)n1 [Compound 38, 7-Acetyl-5-amino-2-(2-furyl)[1,2,4]triazolo[1,5-c]pyrimidine] |  |
| 91 | 207.2 to 207.8 °C | Nc1nc(CCO)cc2nc(-c3ccco3)nn12 [Compound 67, 5-Amino-2-(2-furyl)-7-(2-hydroxyethyl)[1,2,4]triazolo[1,5-c]pyrimidine] |  |
